{"source": "ChEMBL document CHEMBL4334449", "about": "“Jorunnamycin A from Xestospongia sp. Suppresses Epithelial to Mesenchymal Transition and Sensitizes Anoikis in Human Lung Cancer Cells” (J Nat Prod, 2019)", "key": {"[1]": {"test_system": "NCI-H460", "experiment": "Antiproliferative activity against human H460 cells under detachment conditions assessed as reduction in cell viability at 0.05 uM after 6 hrs by XTT assay", "format": "functional, cell-based"}, "[2]": {"test_system": "NCI-H460", "experiment": "Induction of apoptosis in human H460 cells under detachment conditions assessed as viable cells at 0.5 uM after 24 hrs by Annexin V-FITC/propidium iodide staining-based flow cytometric analysis (reference value: 60.43%)", "format": "functional"}, "[3]": {"test_system": "NCI-H292", "experiment": "Induction of apoptosis in human NCI-H292 cells under detachment conditions assessed as viable cells at 0.5 uM after 24 hrs by Annexin V-FITC/propidium iodide staining-based flow cytometric analysis (reference value: 40.55%)", "format": "functional", "conditions": "NCI-H292, 24 h, read-out: Activity"}, "[4]": {"test_system": "NCI-H460", "experiment": "Antiproliferative activity against human H460 cells under detachment conditions assessed as reduction in cell viability at 0.1 to 0.5 uM after 3 hrs by XTT assay", "format": "functional, cell-based"}, "[5]": {"test_system": "NCI-H23", "experiment": "Induction of apoptosis in human H23 cells under detachment conditions assessed as early apoptotic cells at 0.5 uM after 24 hrs by Annexin V-FITC/propidium iodide staining-based flow cytometric analysis (reference value: 26.81%)", "format": "functional"}, "[6]": {"test_system": "NCI-H292", "experiment": "Inhibition of colony formation in human NCI-H292 cells under detachment conditions assessed as reduction in number of colonies at 0.1 to 0.5 uM after 14 days by microscopic method", "format": "functional, cell-based"}, "[7]": {"test_system": "NCI-H460", "experiment": "Induction of anoikis in human H460 cells […] under detachment conditions assessed as effect on P53 level at 0.05 to 0.5 uM after 12 hrs by Western blot analysis", "format": "functional, cell-based"}, "[8]": {"test_system": "NCI-H460", "experiment": "Induction of anoikis in human H460 cells under detachment conditions assessed as decrease in BCL-2 level at 0.1 to 0.5 uM after 12 hrs by Western blot analysis", "format": "functional, cell-based"}, "[9]": {"test_system": "NCI-H460", "experiment": "Induction of apoptosis in human H460 cells under detachment conditions assessed as late apoptotic cells at 0.5 uM after 24 hrs by Annexin V-FITC/propidium iodide staining-based flow cytometric analysis (reference value: 15.44%)", "format": "functional"}, "[10]": {"test_system": "NCI-H23", "experiment": "Induction of anoikis in human H23 cells harboring with p53 mutant under detachment conditions assessed as decrease in MCL-1 level at 0.05 to 0.5 uM after 12 hrs by Western blot analysis", "format": "functional, cell-based"}, "[11]": {"test_system": "NCI-H23", "experiment": "Induction of anoikis in human H23 cells harboring with p53 mutant under detachment conditions assessed as effect on P53 level at 0.05 to 0.5 uM after 12 hrs by Western blot analysis", "format": "functional, cell-based"}, "[12]": {"test_system": "NCI-H460", "experiment": "Induction of apoptosis in human H460 cells under detachment conditions at 0.05 to 0.5 uM after 24 hrs by Hoechst 33342/propidium iodide staining based fluorescent microscopic method", "format": "functional, cell-based"}, "[13]": {"test_system": "NCI-H460", "experiment": "Inhibition of colony formation in human H460 cells under detachment conditions assessed as reduction in number of colonies at 0.1 to 0.5 uM after 14 days by microscopic method", "format": "functional, cell-based"}, "[14]": {"test_system": "NCI-H23", "experiment": "Induction of apoptosis in human H23 cells under detachment conditions assessed as late apoptotic cells at 0.5 uM after 24 hrs by Annexin V-FITC/propidium iodide staining-based flow cytometric analysis (reference value: 2.82%)", "format": "functional"}, "[15]": {"test_system": "NCI-H460", "experiment": "Antiproliferative activity against human H460 cells assessed as reduction in cell viability at 0.05 to 0.5 uM after 24 hrs by MTT assay", "format": "functional, cell-based"}, "[16]": {"test_system": "NCI-H23", "experiment": "Induction of anoikis in human H23 cells harboring with p53 mutant under detachment conditions assessed as effect on Bax level at 0.05 to 0.5 uM after 12 hrs by Western blot analysis", "format": "functional, cell-based"}, "[17]": {"test_system": "NCI-H460", "experiment": "Induction of apoptosis in human H460 cells under detachment conditions assessed as necrotic cells at 0.5 uM after 24 hrs by Annexin V-FITC/propidium iodide staining-based flow cytometric analysis (reference value: 1.58%)", "format": "functional"}, "[18]": {"test_system": "NCI-H460", "experiment": "Antiproliferative activity against human H460 cells assessed as reduction in cell viability at 0.1 to 0.5 uM after at 72 hrs by crystal violet staining assay", "format": "functional, cell-based"}, "[19]": {"test_system": "NCI-H460", "experiment": "Effect on total ERK protein level in human H460 cells under detachment conditions at 0.05 to 0.5 uM after 12 hrs by Western blot analysis", "format": "ADME, cell-based", "conditions": "nci-h460, 12 h"}, "[20]": {"test_system": "NCI-H460", "experiment": "Induction of apoptosis in human H460 cells at 1 uM after 24 hrs by Hoechst 33342/propidium iodide staining based fluorescent microscopic method", "format": "functional, cell-based"}, "[21]": {"test_system": "NCI-H23", "experiment": "Inhibition of colony formation in human H23 cells under detachment conditions assessed as reduction in size of colonies at 0.1 to 0.5 uM after 14 days by microscopic method", "format": "functional, cell-based"}, "[22]": {"target": "T1, Serine/threonine-protein kinase AKT (Homo sapiens) (UniProt P31751+Q9Y243+P31749)", "T1 sequence (P31749 whole entry, looked up)": "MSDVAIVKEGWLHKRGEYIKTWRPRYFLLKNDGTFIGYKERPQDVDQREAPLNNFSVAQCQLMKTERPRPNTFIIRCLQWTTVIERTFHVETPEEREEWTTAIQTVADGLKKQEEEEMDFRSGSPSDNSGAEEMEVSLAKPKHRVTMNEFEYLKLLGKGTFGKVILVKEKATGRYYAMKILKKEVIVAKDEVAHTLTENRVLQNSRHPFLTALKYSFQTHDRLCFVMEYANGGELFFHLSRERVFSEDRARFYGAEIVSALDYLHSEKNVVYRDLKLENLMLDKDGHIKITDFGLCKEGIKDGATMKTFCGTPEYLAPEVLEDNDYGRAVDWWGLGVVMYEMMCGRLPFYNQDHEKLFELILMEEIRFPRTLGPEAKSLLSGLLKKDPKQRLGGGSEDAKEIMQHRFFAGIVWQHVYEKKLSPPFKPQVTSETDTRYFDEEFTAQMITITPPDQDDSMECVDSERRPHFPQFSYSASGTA", "T1 sequence (P31751 whole entry, looked up)": "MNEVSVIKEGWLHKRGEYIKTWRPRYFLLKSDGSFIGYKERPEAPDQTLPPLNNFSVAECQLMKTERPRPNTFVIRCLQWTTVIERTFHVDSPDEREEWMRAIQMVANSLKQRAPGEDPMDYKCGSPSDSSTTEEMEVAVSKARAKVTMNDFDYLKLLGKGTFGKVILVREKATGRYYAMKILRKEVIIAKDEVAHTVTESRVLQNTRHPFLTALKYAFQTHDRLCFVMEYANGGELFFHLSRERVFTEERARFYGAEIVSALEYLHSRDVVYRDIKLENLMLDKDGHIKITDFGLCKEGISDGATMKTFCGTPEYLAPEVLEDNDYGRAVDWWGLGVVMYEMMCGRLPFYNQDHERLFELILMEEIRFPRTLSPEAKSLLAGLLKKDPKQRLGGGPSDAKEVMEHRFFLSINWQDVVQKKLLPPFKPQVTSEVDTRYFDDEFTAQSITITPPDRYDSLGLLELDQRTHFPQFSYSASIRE", "T1 sequence (Q9Y243 whole entry, looked up)": "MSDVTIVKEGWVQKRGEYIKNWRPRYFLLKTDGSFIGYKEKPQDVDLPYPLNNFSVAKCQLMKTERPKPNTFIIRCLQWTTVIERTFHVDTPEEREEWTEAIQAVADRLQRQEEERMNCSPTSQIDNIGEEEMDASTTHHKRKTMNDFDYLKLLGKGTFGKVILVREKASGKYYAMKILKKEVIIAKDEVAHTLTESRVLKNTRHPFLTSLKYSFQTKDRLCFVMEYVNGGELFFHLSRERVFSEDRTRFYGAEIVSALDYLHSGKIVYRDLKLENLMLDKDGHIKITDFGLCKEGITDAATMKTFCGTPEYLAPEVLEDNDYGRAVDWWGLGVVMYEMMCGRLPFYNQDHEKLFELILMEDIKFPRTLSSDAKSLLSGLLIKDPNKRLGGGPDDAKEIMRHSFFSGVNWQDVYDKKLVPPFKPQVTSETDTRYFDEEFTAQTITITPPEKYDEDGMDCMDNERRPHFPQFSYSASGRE", "experiment": "Inhibition of AKT phosphorylation in human H23 cells harboring with p53 mutant under detachment conditions at 0.05 to 0.5 uM after 12 hrs by Western blot analysis", "format": "cell-based"}, "[23]": {"target": "T1, Serine/threonine-protein kinase AKT (Homo sapiens)", "experiment": "Inhibition of AKT phosphorylation in human H460 cells under detachment conditions at 0.05 to 0.5 uM after 12 hrs by Western blot analysis", "format": "cell-based"}, "[24]": {"test_system": "NCI-H292", "experiment": "Antiproliferative activity against human NCI-H292 cells under detachment conditions assessed as reduction in cell viability at 0.05 to 0.5 uM up to 24 hrs by XTT assay", "format": "functional, cell-based"}, "[25]": {"test_system": "NCI-H460", "experiment": "Inhibition of colony formation in human H460 cells under detachment conditions assessed as reduction in size of colonies at 0.1 to 0.5 uM after 14 days by microscopic method", "format": "functional, cell-based"}, "[26]": {"test_system": "NCI-H23", "experiment": "Antiproliferative activity against human H23 cells under detachment conditions assessed as reduction in cell viability at 0.05 to 0.5 uM up to 24 hrs by XTT assay", "format": "functional, cell-based"}, "[27]": {"test_system": "NCI-H460", "experiment": "Effect on total AKT protein level in human H460 cells under detachment conditions at 0.05 to 0.5 uM after 12 hrs by Western blot analysis", "format": "ADME, cell-based", "conditions": "nci-h460, 12 h"}, "[28]": {"test_system": "NCI-H292", "experiment": "Induction of apoptosis in human NCI-H292 cells under detachment conditions assessed as early apoptotic cells at 0.5 uM after 24 hrs by Annexin V-FITC/propidium iodide staining-based flow cytometric analysis (reference value: 29.96%)", "format": "functional"}, "[29]": {"test_system": "NCI-H292", "experiment": "Inhibition of colony formation in human NCI-H292 cells under detachment conditions assessed as reduction in size of colonies at 0.1 to 0.5 uM after 14 days by microscopic method", "format": "functional, cell-based"}}, "note": "The source made the active and inactive calls. The calls are words filed in the database; no cut-off is given here."}
{"smiles": "COC1=C(C)C(=O)C2=C(C1=O)[C@@H]1[C@@H]3CC4=C(C(=O)C(OC)=C(C)C4=O)[C@H](CO)N3[C@@H](C#N)[C@H](C2)N1C", "note": "[JOURNNAMYCIN A]", "values": [{"measurement": "Activity", "setting": "[1]", "value": "Active"}, {"measurement": "fold change (FC)", "setting": "[2]", "value": 2}, {"measurement": "viability at 0.5 µM", "setting": "[3]", "value": 25.8, "unit": "%"}, {"measurement": "Activity", "setting": "[4]", "value": "Active"}, {"measurement": "Activity", "setting": "[5]", "value": 37.79, "unit": "%"}, {"measurement": "inhibition", "setting": "[6]", "value": "Active"}, {"measurement": "Activity", "setting": "[7]", "value": "inactive"}, {"measurement": "Activity", "setting": "[8]", "value": "Active"}, {"measurement": "Activity", "setting": "[9]", "value": 48.01, "unit": "%"}, {"measurement": "Activity", "setting": "[10]", "value": "Active"}, {"measurement": "Activity", "setting": "[11]", "value": "inactive"}, {"measurement": "Activity", "setting": "[12]", "value": "Active"}, {"measurement": "inhibition", "setting": "[13]", "value": "Active"}, {"measurement": "Activity", "setting": "[14]", "value": 17.1, "unit": "%"}, {"measurement": "Activity", "setting": "[15]", "value": "inactive"}, {"measurement": "Activity", "setting": "[16]", "value": "inactive"}, {"measurement": "Activity", "setting": "[17]", "value": 24.2, "unit": "%"}, {"measurement": "Activity", "setting": "[18]", "value": "Active"}, {"measurement": "Activity", "setting": "[19]", "value": "Non-Toxic"}, {"measurement": "Activity", "setting": "[20]", "value": "Active"}, {"measurement": "inhibition", "setting": "[21]", "value": "Active"}, {"measurement": "inhibition", "setting": "[22]", "value": "Active"}, {"measurement": "inhibition", "setting": "[23]", "value": "Active"}, {"measurement": "Activity", "setting": "[24]", "value": "Active"}, {"measurement": "inhibition", "setting": "[25]", "value": "Active"}, {"measurement": "Activity", "setting": "[26]", "value": "Active"}, {"measurement": "Activity", "setting": "[27]", "value": "Non-Toxic"}, {"measurement": "Activity", "setting": "[28]", "value": 45.68, "unit": "%"}, {"measurement": "inhibition", "setting": "[29]", "value": "Active"}]}
